Legend:
OBPb bonded with AMA = biological target: T1, OBPb bonded with AMA (Bos taurus, UniProt P07435); experiment: Substitution of AMA bonded to OBPb by other odorants (AMA and tyrosine fluorescence); assay type: binding, bovine; settings: for fluorescence intensity of tyrosine on adding the odorant: ex 250 nm, em 300 nm, immediately after addition (0 minutes); for fluorescence intensity of AMA / dissociation of AMA from OBPb on adding the odorant: ex 295 nm, em 481 nm, 0 minutes
T1 sequence (P07435 1-159): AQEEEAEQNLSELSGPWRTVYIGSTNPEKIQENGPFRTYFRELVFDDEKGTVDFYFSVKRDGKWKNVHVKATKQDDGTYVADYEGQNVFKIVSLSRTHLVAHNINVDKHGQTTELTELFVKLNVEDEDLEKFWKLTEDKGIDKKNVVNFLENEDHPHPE
Procedure: Further, investigation was made as to how an odorant once bonded to OBPb behaves when other odorants are thereafter bonded. Aminoanthracene (AMA) which is a fluorescent odorant was employed as a previously bonded odorant, and DMO and geraniol were used as odorants added to the AMA bond.
(§1) An OBPb solution of 10 μM in concentration was prepared. AMA, DMO and geraniol were dissolved in ethanol respectively, for preparing an AMA solution, a DMO solution and a geraniol solution of 10^−2 M in concentration.
First, 0.1 μl of an AMA solution was added to 100 μl of an OBPb solution, and left to stand at 25° C. for one hour for bonding AMA to OBPb. Phosphate buffer saline (PBS) was added to this solution up to 4 ml (diluted to 40 times), 4 μl of ethanol, DMO or geraniol was added and thereafter parts of 300 μl were taken out after lapses of 0, 5, 10, 15, 20, 25, 30, 40 and 60 minutes for measuring fluorescence intensity of AMA (excitation wavelength: 295 nm, measurement wavelength: 481 nm) and fluorescence intensity of […].
In measurement of the fluorescence intensity of tyrosine, the excitation wavelength is 250 nm, and the measurement wavelength is 300 nm. Tyrosine is present in an internal cavity of a monomer of OBPb. Therefore, dissociation of the odorant from the internal cavity IC can be measured by change of the fluorescence intensity of tyrosine (the fluorescence reduces when tyrosine becomes hydrophilic).

OBPb [1] = biological target: T2, OBPb (Bos taurus, UniProt P07435); experiment: Dissociation constant KD of odorant for OBPb; assay type: binding, bovine; settings: affinity of odorant for OBPb
T2 sequence (P07435 1-159): T1 sequence (P07435 1-159)

[2] = biological target: T3, OBPb-norm central pocket CP (Bos taurus, UniProt P07435); experiment: Time variation of peaks of tryptophane difference fluorescence spectra, OBPb-norm; assay type: binding, bovine; settings: 0 to 60 minutes after addition
T3 sequence (P07435 1-159): T1 sequence (P07435 1-159)
From the text: (§2) Then, time variations of peaks of fluorescence spectra of tryptophane in central pockets CP bonded with odorants were investigated as to DMO and geraniol employed as odorants.
(§3) When tryptophane is in OBPb, the peak wavelength of the fluorescence spectrum of tryptophane is 345 nm. In general, the fluorescence wavelength of tryptophane shifts to a longer wavelength in hydrophilic environment, and shifts to a shorter wavelength in hydrophobic environment. At this point, a fluorescence spectrum upon bonding with an odorant was measured for calculating difference between the same and a spectrum at 0 minutes and investigating the relation between the peak intensity and the elapsed time.
(§4) The difference spectrum was calculated by subtracting the fluorescence spectrum at each time from the fluorescence spectrum at 0 minutes. When a peak of the fluorescence spectrum at a certain time shifts to a shorter wavelength beyond 345 nm (i.e., rendered hydrophobic), therefore, it follows that the peak of the difference spectrum shifts to a longer wavelength beyond 345 nm to the contrary.

[3] = biological target: T4, bovine derivation odorant binding protein (OBPb) (Bos taurus, UniProt P07435); experiment: Fluorometry of OBPb with DMO and BPA at different concentrations (Inventive Example 2); settings: for attenuation of fluorescence intensity versus concentration: 10^−9 to 10^−6 M
T4 sequence (P07435 1-159): T1 sequence (P07435 1-159)
Procedure: In preparation of the OBPb solution employed for Inventive Example 2, an OBPb solution of 250 nM in concentration was prepared by a method similar to that in Inventive Example 1.
In preparation of the DMO solutions and the BPA solutions employed for Inventive Example 2, on the other hand, two types of odorants of DMO and BPA were dissolved in ethanol (EtOH) respectively, for preparing a solution of 10^−2 M in concentration as to each odorant. Further, the DMO solution and the BPA solution of 10^−2 M in concentration prepared in the aforementioned manner were diluted with EtOH respectively, thereby preparing solutions of 10^−3 M, 10^−4 M, 10^−5 M and 10^−6 M in concentration respectively. Thus, DMO solutions and BPA solutions of 10^−3 M, 10^−4 M, 10^−5 M and 10^−6 M in concentration were prepared.
300 μl of the OBPb solution of 250 nM in concentration and 0.3 μl of each of the DMO solutions of 10^−3 M, 10^−4 M, 10^−5 M and 10^−6 M in concentration prepared in the aforementioned manner were mixed with each other thereby preparing sample solutions having final DMO concentrations of 10^−9 M, 10^−8 M, 10^−7 M and 10^−6 M respectively. Sample solutions having final concentrations of 10^−9 M, 10^−8 M, 10^−7 M and 10^−6 M respectively were prepared also as to BPA by a preparation method similar to that for the case of DMO.
After preparing the sample solutions in the aforementioned manner, the fluorescence intensity was measured as to each sample solution by a method similar to that in Inventive Example 1. Further, the relation between the concentrations and the fluorescence intensity of DMO and BPA was investigated on the basis of results at a point after a lapse of 20 minutes from initiation of measurement and at a point after a lapse of 30 minutes from initiation of measurement among results obtained by measuring the fluorescence intensity.
Also in this case, the point of initiation of measurement was set to the point of an elapsed time of 0 minutes while setting the fluorescence intensity at this point to 100% as a reference value for calculating a relative value of the fluorescence intensity at each point on the basis of this reference value.

[4] = biological target: T5, OBPb-del (OBPb with Phe 149 up to Glu 159 deleted) (Bos taurus, UniProt P07435); experiment: Relative tryptophane fluorescence intensity change after DMO addition, OBP-del; assay type: binding, bovine; settings: DMO 10 μM, OBPb 250 nM, 25 degrees, ex 295 nm, em 340 nm
T5 construct: made in house
T5 sequence (P07435 1-148): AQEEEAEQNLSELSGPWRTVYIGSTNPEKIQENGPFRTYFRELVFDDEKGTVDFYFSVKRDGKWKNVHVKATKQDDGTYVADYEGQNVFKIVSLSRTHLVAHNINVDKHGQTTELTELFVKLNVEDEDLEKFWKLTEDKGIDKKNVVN
Procedure: (§5) OBPb-norm shown in FIG. 7(a) is normal (unvaried) OBPb. OBPb-del shown in FIG. 7(b) is OBPb obtained by deleting Phe (phenylalanine) 149 up to Glu (glutamic acid) 159.
(§6) As to the OBPb-norm and the OBP-del, the relation between post-addition elapsed times and change of relative fluorescence intensity was investigated by adding dimethyl octanol (DMO) employed as an odorant to OBPb solutions.
(§7) The concentration of OBPb in PBS was set to 250 nM, and the concentration of a DMO solution was set to 10 μM. The DMO solution was added to the OBPb solution, which in turn was thereafter incubated at 25 degrees, for taking out part at each time and measuring fluorescence (excitation wavelength: 295 nm, fluorescence wavelength: 340 nm) of tryptophane present in the central pocket CP.
(§8) The difference in relative fluorescence intensity was calculated by dividing the difference between fluorescence intensity at a time 0 and fluorescence intensity at each time by the fluorescence intensity at the time 0.

OBPb-norm (normal OBPb) = biological target: T6, OBPb-norm (normal OBPb) (Bos taurus, UniProt P07435); experiment: Relative tryptophane fluorescence intensity change after DMO addition, OBPb-norm; assay type: binding, bovine; settings: DMO 10 μM, OBPb 250 nM, 25 degrees, ex 295 nm, em 340 nm
T6 sequence (P07435 1-159): T1 sequence (P07435 1-159)
Procedure: as §5, §6, §7, §8

OBP-del = biological target: T7, OBP-del (Bos taurus, UniProt P07435); experiment: Time variation of peaks of tryptophane difference fluorescence spectra, OBP-del; assay type: binding, bovine; settings: during bonding reaction, 0 to 60 minutes
T7 construct: made in house
T7 sequence (P07435 1-148): T5 sequence (P07435 1-148)
From the text: as §2, §3, §4

[5] = biological target: T4, bovine derivation odorant binding protein (OBPb); experiment: Fluorometry of tryptophane fluorescence of OBPb with four odorants (Inventive Example 1); settings: for affinity for the OBPb (relative, among the four odorants): FIG. 4(b); for reduction of the fluorescence intensity: odorant 10 μM, OBPb 250 nM, excitation 280 nm, fluorescence 340 nm, among the four odorants, FIG. 4(b) at 10 minutes
Procedure: In order to prepare the OBPb solution employed for Inventive Example 1, bovine derivation odorant binding protein (OBPb) was first dissolved in a phosphate buffer (PBS; phosphate buffered saline), and PBS was further added to this OBPb solution for diluting the same until the concentration of the solution reached 250 nM.
In order to prepare the odorant solution employed for Inventive Example 1, four types of odorants, i.e., dimethyl octanol (DMO), citronellal, citronellol and geraniol were dissolved in ethanol solutions (EtOH) respectively, for preparing an odorant solution of 10^−2 M in concentration as to each odorant.
300 μl of the OBPb solution of 250 nM in concentration and 0.3 μl of each odorant solution of 10^−2 M in concentration prepared in the aforementioned manner were mixed with each other for preparing a sample solution employed for measuring fluorescence intensity as to each of the four types of odorants. In this case, the final concentration of the odorant in each sample solution is 10 μM. A sample of only OBPb containing no odorant, i.e., that obtained by mixing an OBPb solution and an ethanol solution with each other, was also prepared as a comparative sample.
Each sample solution prepared in the aforementioned manner was introduced into a quartz cell for fluorescence while sealing an opening for preventing evaporation. The aforementioned cell was set in a cell holder of a fluorometer (F-4000 by Hitachi, Ltd.) and left to stand for 10 minutes for temperature balancing.
In measurement of the fluorescence intensity of each sample solution, a shutter of the fluorometer was first opened for irradiating the sample solution with light of 280 nm in wavelength from a slit of 10 nm in width and exciting tryptophane constituting the OBPb contained in the sample solution. Fluorescence of 340 nm in wavelength obtained from the tryptophane excited in this manner was taken out through the slit of 10 nm in width, for measuring the intensity of the obtained fluorescence.
In this case, the switching time for the shutter of the fluorometer was set to two seconds for opening/closing the shutter at intervals of five minutes and measuring the fluorescence intensity of the sample solution over 30 minutes.
Referring to FIG. 4, the point of initiation of measurement is set to the point of the elapsed time of 0 minutes, and the fluorescence intensity of the sample solution at this point is set to 100%. Thus, the fluorescence intensity at the elapsed time of 0 minutes, i.e., the point of initiation of measurement was set to 100% as to each sample solution for regarding this as a reference value and calculating a relative value of the fluorescence at each point every five minutes on the basis of this reference value.

OBPb [6] = biological target: T2, OBPb; experiment: Time variation of tryptophane and AMA fluorescence upon addition of AMA to OBPb; assay type: binding, bovine; settings: ex 295 nm
Procedure: as §1
Then, time variations of fluorescence from AMA and fluorescence from tryptophane upon addition of AMA were measured. FIG. 13 illustrates results of measurement of fluorescence intensity change of tryptophane bonded with AMA. The excitation wavelength for tryptophane is 295 nm, and the fluorescence wavelength is 340 nm. FIG. 14 illustrates results of measurement of fluorescence intensity change of AMA bonded with […]. The excitation wavelength for AMA is 295 nm, and the fluorescence wavelength is 480 nm. Referring to FIGS. 13 and 14, the horizontal axes show post-addition elapsed times, and the vertical axis show relative fluorescence intensity difference levels. The relative fluorescence intensity difference was calculated by dividing the difference between fluorescence intensity at a time 0 and fluorescence intensity at each time by the fluorescence intensity at the time 0.

Row | SMILES | fluorescence intensity of tyrosine on adding the odorant (OBPb bonded with AMA) | fluorescence intensity of AMA / dissociation of AMA from OBPb on adding the odorant (OBPb bonded with AMA) | Kd (OBPb [1]) [µM] | bonding to the central pocket CP (from peak wavelengths of difference spectra) [2] | attenuation of fluorescence intensity versus concentration ([3]; after 20 and 30 minutes) | range in which discrimination based on the fluorescence intensity is possible ([3]; after 20 and 30 minutes) | range in which discrimination based on the fluorescence intensity is possible ([3]; conversion of 10^−9 M) | relative fluorescence intensity change of tryptophane with time [4] | relative fluorescence intensity change of tryptophane with time (OBPb-norm (normal OBPb)) | peak wavelengths of the difference spectra of tryptophane (OBP-del) | affinity for the OBPb (relative, among the four odorants) [5] | reduction of the fluorescence intensity [5] | fluorescence intensity of tryptophane after addition of AMA (OBPb [6]; em 340 nm) | fluorescence intensity of AMA after addition of AMA (OBPb [6]; em 480 nm)
1 | CC(C)CCCC(C)CCO (stereo not shown) [DMO] | No change of the fluorescence intensity was observed | AMA dissociates immediately after addition | ~0.3 | dissociates after being bonded to the central pocket CP | attenuation of the fluorescence intensity is reduced as the concentration of DMO or BPA is increased | 10^−9 M | about 200 ppt | no variation with presence/absence of the odorant | rises with time | remained unchanged | highest affinity | at the minimum |  | 
2 | CC(C)(c1ccc(O)cc1)c1ccc(O)cc1 [BPA, bisphenol A] |  |  |  |  | attenuation of the fluorescence intensity is reduced as the concentration of DMO or BPA is increased | 10^−9 M | about 200 ppt |  |  |  |  |  |  | 
3 | Nc1cccc2cc3ccccc3cc12 [AMA, Aminoanthracene] |  |  | ~1.3 |  |  |  |  |  |  |  |  |  | temporarily reduces after addition of AMA and thereafter increases | increases after addition of AMA, takes a constant value and thereafter reduces
4 | CC(C)=CCC/C(C)=C/CO [geraniol] | reduction of the fluorescence intensity was observed | AMA dissociates immediately after addition | ~3 | remains bonded to the central pocket CP |  |  |  |  |  | remained unchanged | lowest affinity | at the maximum |  | 
